Reference: article PMC6332596 (Journal of Hematology & Oncology, 2019)
Where two headings read alike, the source gives them in different places.

[1] = Grade 1, worst grade per patient in all cycles, N = 18
[2] = Grade 2, worst grade per patient in all cycles, N = 18
[3] = Grade 3, worst grade per patient in all cycles, N = 18
[4] = Grade 4, worst grade per patient in all cycles, N = 18
[5] = Grade 5, worst grade per patient in all cycles, N = 18

Method: Patients were enrolled sequentially into dose escalation cohorts using a standard 3 + 3 design, except that only two patients were enrolled at the starting dose. Intra-patient dose escalation was not permitted.
If one of the first three patients at a dose level experienced DLT, up to three additional patients (total up to six patients) were enrolled at that dose level. If more than two patients at a dose level experienced DLT, dose escalation was halted, and the dose level was determined to have exceeded MTD. Three additional patients were then entered on the next lower dose level. MTD was defined as the highest dose with an observed incidence of DLT in no more than one of six patients.
Toxicity was graded according to Common Terminology Criteria for Adverse Events (CTCAE) version 4.0.
Safety assessments included the reporting of all adverse events (AEs), changes in clinical laboratory parameters (hematology, serum chemistries, coagulation, urinalysis), vital sign measurements, 12-lead electrocardiogram (ECG) results, and physical examination findings. In addition, serial measurements of left ventricular ejection fraction, thyroid function, myocardial enzymes, troponin, amylase, and lipase were performed. Twenty-four-hour urine protein was implemented if clinically indicated.
Safety parameters were assessed at baseline and at regular intervals during the study. Adverse events (AEs) were classified/graded weekly according to the CTCAE version 4.0.

With `COc1ccc2c(Oc3ccc4c(C(=O)Nc5ccccc5N)cccc4c3)ccnc2c1` [chiauranib] the “patients with DLT (grade 3 hypertension)” value (65 mg/day cohort (n = 4), cycle 1) was “two”, the “serious adverse events (SAE) reported” value (20-mg dose level, death from pulmonary infection, assessed unlikely related) was “one” and the “Treatment-related adverse event: ALT increased” value [1] was 2 (11.1) n (%). For the same molecule, the “Treatment-related adverse event: AST increased” value [1] was 3 (16.7) n (%), the “Treatment-related adverse event: Abdominal pain” value [1] was 2 (11.1) n (%) and the “Treatment-related adverse event: Amylase increased” value [1] was 3 (16.7) n (%). For the same molecule, the “Treatment-related adverse event: Blood urea increased” value [1] was 2 (11.1) n (%), the “Treatment-related adverse event: Conjugated bilirubin increased” value [1] was 5 (27.8) n (%) and the “Treatment-related adverse event: Decreased appetite” value [1] was 0 n (%). For the same molecule, the “Treatment-related adverse event: Diarrhea” value [1] was 2 (11.1) n (%), the “Treatment-related adverse event: Dysphonia” value [1] was 2 (11.1) n (%) and the “Treatment-related adverse event: Fatigue” value [1] was 7 (38.9) n (%). The “Treatment-related adverse event: Hematuria” value [1] was 7 (38.9) n (%), the “Treatment-related adverse event: Hyperbilirubinemia” value [1] was 2 (11.1) n (%) and the “Treatment-related adverse event: Hypertension” value [1] was 3 (16.7) n (%). For the same molecule, the “Treatment-related adverse event: Hypertriglyceridemia” value [1] was 5 (27.8) n (%), the “Treatment-related adverse event: Hypothyroidism” value [1] was 7 (38.9) n (%) and the “Treatment-related adverse event: Leucopenia” value [1] was 2 (11.1) n (%). The “Treatment-related adverse event: Mouth ulceration” value [1] was 1 (5.6) n (%), the “Treatment-related adverse event: Nausea” value [1] was 4 (22.2) n (%) and the “Treatment-related adverse event: Neutropenia” value [1] was 2 (11.1) n (%). For the same molecule, the “Treatment-related adverse event: Palmar-plantar erythrodysesthesia syndrome” value [1] was 1 (5.6) n (%), the “Treatment-related adverse event: Proteinuria” value [1] was 8 (44.4) n (%) and the “Treatment-related adverse event: Rash” value [1] was 1 (5.6) n (%). For the same molecule, the “Treatment-related adverse event: Thrombocytopenia” value [1] was 2 (11.1) n (%), the “Treatment-related adverse event: Unconjugated bilirubin increased” value [1] was 2 (11.1) n (%) and the “Treatment-related adverse event: Vaginal hemorrhage” value [1] was 2 (11.1) n (%). The “Treatment-related adverse event: ALT increased” value [2] was 0 n (%), the “Treatment-related adverse event: AST increased” value [2] was 0 n (%) and the “Treatment-related adverse event: Abdominal pain” value [2] was 0 n (%). The “Treatment-related adverse event: Amylase increased” value [2] was 1 (5.6) n (%), the “Treatment-related adverse event: Blood urea increased” value [2] was 0 n (%) and the “Treatment-related adverse event: Conjugated bilirubin increased” value [2] was 0 n (%). The “Treatment-related adverse event: Decreased appetite” value [2] was 2 (11.1) n (%), the “Treatment-related adverse event: Diarrhea” value [2] was 1 (5.6) n (%) and the “Treatment-related adverse event: Dysphonia” value [2] was 0 n (%). For the same molecule, the “Treatment-related adverse event: Fatigue” value [2] was 4 (22.2) n (%), the “Treatment-related adverse event: Hematuria” value [2] was 0 n (%) and the “Treatment-related adverse event: Hyperbilirubinemia” value [2] was 0 n (%). The “Treatment-related adverse event: Hypertension” value [2] was 1 (5.6) n (%), the “Treatment-related adverse event: Hypertriglyceridemia” value [2] was 1 (5.6) n (%) and the “Treatment-related adverse event: Hypothyroidism” value [2] was 0 n (%). The “Treatment-related adverse event: Leucopenia” value [2] was 1 (5.6) n (%), the “Treatment-related adverse event: Mouth ulceration” value [2] was 1 (5.6) n (%) and the “Treatment-related adverse event: Nausea” value [2] was 0 n (%). The “Treatment-related adverse event: Neutropenia” value [2] was 0 n (%), the “Treatment-related adverse event: Palmar-plantar erythrodysesthesia syndrome” value [2] was 1 (5.6) n (%) and the “Treatment-related adverse event: Proteinuria” value [2] was 0 n (%). For the same molecule, the “Treatment-related adverse event: Rash” value [2] was 1 (5.6) n (%), the “Treatment-related adverse event: Thrombocytopenia” value [2] was 0 n (%) and the “Treatment-related adverse event: Unconjugated bilirubin increased” value [2] was 0 n (%). The “Treatment-related adverse event: Vaginal hemorrhage” value [2] was 0 n (%), the “Treatment-related adverse event: ALT increased” value [3] was 0 n (%) and the “Treatment-related adverse event: AST increased” value [3] was 0 n (%). For the same molecule, the “Treatment-related adverse event: Abdominal pain” value [3] was 0 n (%), the “Treatment-related adverse event: Amylase increased” value [3] was 0 n (%) and the “Treatment-related adverse event: Blood urea increased” value [3] was 0 n (%). The “Treatment-related adverse event: Conjugated bilirubin increased” value [3] was 0 n (%), the “Treatment-related adverse event: Decreased appetite” value [3] was 0 n (%) and the “Treatment-related adverse event: Diarrhea” value [3] was 0 n (%). The “Treatment-related adverse event: Dysphonia” value [3] was 0 n (%), the “Treatment-related adverse event: Fatigue” value [3] was 0 n (%) and the “Treatment-related adverse event: Hematuria” value [3] was 0 n (%). For the same molecule, the “Treatment-related adverse event: Hyperbilirubinemia” value [3] was 0 n (%), the “Treatment-related adverse event: Hypertension” value [3] was 2 (11.1) n (%) and the “Treatment-related adverse event: Hypertriglyceridemia” value [3] was 0 n (%). The “Treatment-related adverse event: Hypothyroidism” value [3] was 0 n (%), the “Treatment-related adverse event: Leucopenia” value [3] was 0 n (%) and the “Treatment-related adverse event: Mouth ulceration” value [3] was 0 n (%). The “Treatment-related adverse event: Nausea” value [3] was 0 n (%), the “Treatment-related adverse event: Neutropenia” value [3] was 2 (11.1) n (%) and the “Treatment-related adverse event: Palmar-plantar erythrodysesthesia syndrome” value [3] was 0 n (%). The “Treatment-related adverse event: Proteinuria” value [3] was 0 n (%), the “Treatment-related adverse event: Rash” value [3] was 0 n (%) and the “Treatment-related adverse event: Thrombocytopenia” value [3] was 0 n (%). For the same molecule, the “Treatment-related adverse event: Unconjugated bilirubin increased” value [3] was 0 n (%), the “Treatment-related adverse event: Vaginal hemorrhage” value [3] was 0 n (%) and the “Treatment-related adverse event: ALT increased” value [4] was 0 n (%). For the same molecule, the “Treatment-related adverse event: AST increased” value [4] was 0 n (%), the “Treatment-related adverse event: Abdominal pain” value [4] was 0 n (%) and the “Treatment-related adverse event: Amylase increased” value [4] was 0 n (%). For the same molecule, the “Treatment-related adverse event: Blood urea increased” value [4] was 0 n (%), the “Treatment-related adverse event: Conjugated bilirubin increased” value [4] was 0 n (%) and the “Treatment-related adverse event: Decreased appetite” value [4] was 0 n (%). The “Treatment-related adverse event: Diarrhea” value [4] was 0 n (%), the “Treatment-related adverse event: Dysphonia” value [4] was 0 n (%) and the “Treatment-related adverse event: Fatigue” value [4] was 0 n (%). The “Treatment-related adverse event: Hematuria” value [4] was 0 n (%), the “Treatment-related adverse event: Hyperbilirubinemia” value [4] was 0 n (%) and the “Treatment-related adverse event: Hypertension” value [4] was 0 n (%). For the same molecule, the “Treatment-related adverse event: Hypertriglyceridemia” value [4] was 0 n (%), the “Treatment-related adverse event: Hypothyroidism” value [4] was 0 n (%) and the “Treatment-related adverse event: Leucopenia” value [4] was 0 n (%). For the same molecule, the “Treatment-related adverse event: Mouth ulceration” value [4] was 0 n (%), the “Treatment-related adverse event: Nausea” value [4] was 0 n (%) and the “Treatment-related adverse event: Neutropenia” value [4] was 0 n (%). For the same molecule, the “Treatment-related adverse event: Palmar-plantar erythrodysesthesia syndrome” value [4] was 0 n (%), the “Treatment-related adverse event: Proteinuria” value [4] was 0 n (%) and the “Treatment-related adverse event: Rash” value [4] was 0 n (%). The “Treatment-related adverse event: Thrombocytopenia” value [4] was 0 n (%), the “Treatment-related adverse event: Unconjugated bilirubin increased” value [4] was 0 n (%) and the “Treatment-related adverse event: Vaginal hemorrhage” value [4] was 0 n (%). The “Treatment-related adverse event: ALT increased” value [5] was 0 n (%), the “Treatment-related adverse event: AST increased” value [5] was 0 n (%) and the “Treatment-related adverse event: Abdominal pain” value [5] was 0 n (%). For the same molecule, the “Treatment-related adverse event: Amylase increased” value [5] was 0 n (%), the “Treatment-related adverse event: Blood urea increased” value [5] was 0 n (%) and the “Treatment-related adverse event: Conjugated bilirubin increased” value [5] was 0 n (%). For the same molecule, the “Treatment-related adverse event: Decreased appetite” value [5] was 0 n (%), the “Treatment-related adverse event: Diarrhea” value [5] was 0 n (%) and the “Treatment-related adverse event: Dysphonia” value [5] was 0 n (%). For the same molecule, the “Treatment-related adverse event: Fatigue” value [5] was 0 n (%), the “Treatment-related adverse event: Hematuria” value [5] was 0 n (%) and the “Treatment-related adverse event: Hyperbilirubinemia” value [5] was 0 n (%). For the same molecule, the “Treatment-related adverse event: Hypertension” value [5] was 0 n (%), the “Treatment-related adverse event: Hypertriglyceridemia” value [5] was 0 n (%) and the “Treatment-related adverse event: Hypothyroidism” value [5] was 0 n (%). The “Treatment-related adverse event: Leucopenia” value [5] was 0 n (%), the “Treatment-related adverse event: Mouth ulceration” value [5] was 0 n (%) and the “Treatment-related adverse event: Nausea” value [5] was 0 n (%). For the same molecule, the “Treatment-related adverse event: Neutropenia” value [5] was 0 n (%), the “Treatment-related adverse event: Palmar-plantar erythrodysesthesia syndrome” value [5] was 0 n (%) and the “Treatment-related adverse event: Proteinuria” value [5] was 0 n (%). The “Treatment-related adverse event: Rash” value [5] was 0 n (%), the “Treatment-related adverse event: Thrombocytopenia” value [5] was 0 n (%) and the “Treatment-related adverse event: Unconjugated bilirubin increased” value [5] was 0 n (%). The “Treatment-related adverse event: Vaginal hemorrhage” value [5] was 0 n (%), the “treatment-related AE exceeding grade 3” value (N = 18) was “No treatment-related AE exceeded grade 3 was observed” and the treatment-related deaths (N = 18) was “No treatment-related deaths occurred”. For the same molecule, the “treatment-related fatigue, irrespective of grade” value (N = 18) was 61.1%, the “treatment-related grade 3 hyperglycemia” value (N = 18) was “one” and the “treatment-related grade 3 hypertension” value (N = 18) was “two”. The “treatment-related grade 3 neutropenia” value (N = 18) was “two”, the “treatment-related hematuria, irrespective of grade” value (N = 18) was 38.9% and the “treatment-related hypertension, irrespective of grade” value (N = 18) was 33.3%. For the same molecule, the “treatment-related hypertriglyceridemia, irrespective of grade” value (N = 18) was 33.3%, the “treatment-related hypothyroidism, irrespective of grade” value (N = 18) was 38.9% and the “treatment-related proteinuria, irrespective of grade” value (N = 18) was 44.4%. The “patients with at least one AE” value (N = 18, all dose levels) was 18 patients, the “patients with at least one treatment-related AE” value (N = 18, all dose levels) was 94.4% and the “Treatment-related adverse event: ALT increased” value (Total, all cycles, N = 18) was 2 (11.1) n (%). The “Treatment-related adverse event: AST increased” value (Total, all cycles, N = 18) was 3 (16.7) n (%), the “Treatment-related adverse event: Abdominal pain” value (Total, all cycles, N = 18) was 2 (11.1) n (%) and the “Treatment-related adverse event: Amylase increased” value (Total, all cycles, N = 18) was 4 (22.2) n (%). For the same molecule, the “Treatment-related adverse event: Blood urea increased” value (Total, all cycles, N = 18) was 2 (11.1) n (%), the “Treatment-related adverse event: Conjugated bilirubin increased” value (Total, all cycles, N = 18) was 5 (27.8) n (%) and the “Treatment-related adverse event: Decreased appetite” value (Total, all cycles, N = 18) was 2 (11.1) n (%). The “Treatment-related adverse event: Diarrhea” value (Total, all cycles, N = 18) was 3 (16.7) n (%), the “Treatment-related adverse event: Dysphonia” value (Total, all cycles, N = 18) was 2 (11.1) n (%) and the “Treatment-related adverse event: Fatigue” value (Total, all cycles, N = 18) was 11 (61.1) n (%). The “Treatment-related adverse event: Hematuria” value (Total, all cycles, N = 18) was 7 (38.9) n (%), the “Treatment-related adverse event: Hyperbilirubinemia” value (Total, all cycles, N = 18) was 2 (11.1) n (%) and the “Treatment-related adverse event: Hypertension” value (Total, all cycles, N = 18) was 6 (33.3) n (%). For the same molecule, the “Treatment-related adverse event: Hypertriglyceridemia” value (Total, all cycles, N = 18) was 6 (33.3) n (%), the “Treatment-related adverse event: Hypothyroidism” value (Total, all cycles, N = 18) was 7 (38.9) n (%) and the “Treatment-related adverse event: Leucopenia” value (Total, all cycles, N = 18) was 3 (16.7) n (%). The “Treatment-related adverse event: Mouth ulceration” value (Total, all cycles, N = 18) was 2 (11.1) n (%), the “Treatment-related adverse event: Nausea” value (Total, all cycles, N = 18) was 4 (22.2) n (%) and the “Treatment-related adverse event: Neutropenia” value (Total, all cycles, N = 18) was 4 (22.2) n (%). The “Treatment-related adverse event: Palmar-plantar erythrodysesthesia syndrome” value (Total, all cycles, N = 18) was 2 (11.1) n (%), the “Treatment-related adverse event: Proteinuria” value (Total, all cycles, N = 18) was 8 (44.4) n (%) and the “Treatment-related adverse event: Rash” value (Total, all cycles, N = 18) was 2 (11.1) n (%). The “Treatment-related adverse event: Thrombocytopenia” value (Total, all cycles, N = 18) was 2 (11.1) n (%), the “Treatment-related adverse event: Unconjugated bilirubin increased” value (Total, all cycles, N = 18) was 2 (11.1) n (%) and the “Treatment-related adverse event: Vaginal hemorrhage” value (Total, all cycles, N = 18) was 2 (11.1) n (%). The MTD (administered orally once daily) was 50 mg, the “recommended phase II dose (RP2D)” value (administered orally once daily, monotherapy) was 50 mg and the “maximum tolerated dose (MTD)” value (patients, oral once daily, 28-day cycles) was 50 mg/day.
